Experiments:
Test in all cases: KinomeScan
Format in all cases: binding
Details in all cases: 1uM
AAK1 = target: T1, AAK1 (Homo sapiens, UniProt Q2M2I8)
T1 construct: purchased DiscoveRx KINOMEscan

ACVR2A = target: T2, ACVR2A (Homo sapiens, UniProt P27037)
T2 construct: purchased DiscoveRx KINOMEscan

CAMKK2 = target: T3, CAMKK2 (Homo sapiens, UniProt Q96RR4)
T3 construct: purchased DiscoveRx KINOMEscan

CDK11 = target: T4, CDK11 (Homo sapiens, UniProt Q9BWU1)
T4 construct: purchased DiscoveRx KINOMEscan

CDK8 = target: T5, CDK8 (Homo sapiens, UniProt P49336)
T5 construct: purchased DiscoveRx KINOMEscan

CSNK1D = target: T6, CSNK1D (Homo sapiens, UniProt P48730)
T6 construct: purchased DiscoveRx KINOMEscan

DAPK3 = target: T7, DAPK3 (Homo sapiens, UniProt O43293)
T7 construct: purchased DiscoveRx KINOMEscan

DCAMKL2 = target: T8, DCAMKL2 (Homo sapiens, UniProt Q8N568)
T8 construct: purchased DiscoveRx KINOMEscan

DMPK2 = target: T9, DMPK2 (Homo sapiens, UniProt Q6DT37)
T9 construct: purchased DiscoveRx KINOMEscan

EGFR(S752-I759del) = target: T10, EGFR(S752-I759del) (Homo sapiens, UniProt P00533, DEL752-759)
T10 construct: purchased DiscoveRx KINOMEscan

ERK2 = target: T11, ERK2 (Homo sapiens, UniProt P28482)
T11 construct: purchased DiscoveRx KINOMEscan

FYN = target: T12, FYN (Homo sapiens, UniProt P06241)
T12 construct: purchased DiscoveRx KINOMEscan

INSRR = target: T13, INSRR (Homo sapiens, UniProt P14616)
T13 construct: purchased DiscoveRx KINOMEscan

IRAK4 = target: T14, IRAK4 (Homo sapiens, UniProt Q9NWZ3)
T14 construct: purchased DiscoveRx KINOMEscan

KIT-autoinhibited = target: T15, KIT-autoinhibited (Homo sapiens, UniProt P10721)
T15 construct: purchased DiscoveRx KINOMEscan

MAP4K4 = target: T16, MAP4K4 (Homo sapiens, UniProt O95819)
T16 construct: purchased DiscoveRx KINOMEscan

MAPKAPK2 = target: T17, MAPKAPK2 (Homo sapiens, UniProt P49137)
T17 construct: purchased DiscoveRx KINOMEscan

MARK1 = target: T18, MARK1 (Homo sapiens, UniProt Q9P0L2)
T18 construct: purchased DiscoveRx KINOMEscan

MEK3 = target: T19, MEK3 (Homo sapiens, UniProt P46734)
T19 construct: purchased DiscoveRx KINOMEscan

MLK3 = target: T20, MLK3 (Homo sapiens, UniProt Q16584)
T20 construct: purchased DiscoveRx KINOMEscan

MRCKB = target: T21, MRCKB (Homo sapiens, UniProt Q9Y5S2)
T21 construct: purchased DiscoveRx KINOMEscan

MST1R = target: T22, MST1R (Homo sapiens, UniProt Q04912)
T22 construct: purchased DiscoveRx KINOMEscan

MYO3B = target: T23, MYO3B (Homo sapiens, UniProt Q8WXR4)
T23 construct: purchased DiscoveRx KINOMEscan

OSR1 = target: T24, OSR1 (Homo sapiens, UniProt O95747)
T24 construct: purchased DiscoveRx KINOMEscan

p38-delta = target: T25, p38-delta (Homo sapiens, UniProt O15264)
T25 construct: purchased DiscoveRx KINOMEscan

PAK2 = target: T26, PAK2 (Homo sapiens, UniProt Q13177)
T26 construct: purchased DiscoveRx KINOMEscan

PIK3C2B = target: T27, PIK3C2B (Homo sapiens, UniProt O00750)
T27 construct: purchased Invitrogen

PIK3CA(H1047Y) = target: T28, PIK3CA(H1047Y) (Homo sapiens, UniProt P42336, H1047Y)
T28 construct: purchased DiscoveRx KINOMEscan

PIK3CB = target: T29, PIK3CB (Homo sapiens, UniProt P42338)
T29 construct: purchased DiscoveRx KINOMEscan

PIM1 = target: T30, PIM1 (Homo sapiens, UniProt P11309)
T30 construct: purchased DiscoveRx KINOMEscan

PKAC-beta = target: T31, PKAC-beta (Homo sapiens, UniProt P22694)
T31 construct: purchased DiscoveRx KINOMEscan

PKNB(M.tuberculosis) = target: T32, PKNB(M.tuberculosis) (Mycobacterium tuberculosis, UniProt P9WI81)
T32 construct: purchased DiscoveRx KINOMEscan

PLK1 = target: T33, PLK1 (Homo sapiens, UniProt P53350)
T33 construct: purchased DiscoveRx KINOMEscan

PRKCD = target: T34, PRKCD (Homo sapiens, UniProt Q05655)
T34 construct: purchased DiscoveRx KINOMEscan

PRP4 = target: T35, PRP4 (Homo sapiens, UniProt Q13523)
T35 construct: purchased DiscoveRx KINOMEscan

ROCK1 = target: T36, ROCK1 (Homo sapiens, UniProt Q13464)
T36 construct: purchased DiscoveRx KINOMEscan

[1] = target: T37, RSK2(Kin.Dom.1-N-terminal) (Homo sapiens, UniProt P51812)
T37 construct: RSK2(Kin.Dom.1-N-terminal); purchased DiscoveRx KINOMEscan

[2] = target: T38, RSK4(Kin.Dom.2-C-terminal) (Homo sapiens, UniProt Q9UK32)
T38 construct: RSK4(Kin.Dom.2-C-terminal); purchased DiscoveRx KINOMEscan

S6K1 = target: T39, S6K1 (Homo sapiens, UniProt P23443)
T39 construct: purchased DiscoveRx KINOMEscan

STK16 = target: T40, STK16 (Homo sapiens, UniProt O75716)
T40 construct: purchased DiscoveRx KINOMEscan

TEC = target: T41, TEC (Homo sapiens, UniProt P42680)
T41 construct: purchased DiscoveRx KINOMEscan

TNIK = target: T42, TNIK (Homo sapiens, UniProt Q9UKE5)
T42 construct: purchased DiscoveRx KINOMEscan

YES = target: T43, YES (Homo sapiens, UniProt P07947)
T43 construct: purchased DiscoveRx KINOMEscan

T41 sequence (P42680 whole entry): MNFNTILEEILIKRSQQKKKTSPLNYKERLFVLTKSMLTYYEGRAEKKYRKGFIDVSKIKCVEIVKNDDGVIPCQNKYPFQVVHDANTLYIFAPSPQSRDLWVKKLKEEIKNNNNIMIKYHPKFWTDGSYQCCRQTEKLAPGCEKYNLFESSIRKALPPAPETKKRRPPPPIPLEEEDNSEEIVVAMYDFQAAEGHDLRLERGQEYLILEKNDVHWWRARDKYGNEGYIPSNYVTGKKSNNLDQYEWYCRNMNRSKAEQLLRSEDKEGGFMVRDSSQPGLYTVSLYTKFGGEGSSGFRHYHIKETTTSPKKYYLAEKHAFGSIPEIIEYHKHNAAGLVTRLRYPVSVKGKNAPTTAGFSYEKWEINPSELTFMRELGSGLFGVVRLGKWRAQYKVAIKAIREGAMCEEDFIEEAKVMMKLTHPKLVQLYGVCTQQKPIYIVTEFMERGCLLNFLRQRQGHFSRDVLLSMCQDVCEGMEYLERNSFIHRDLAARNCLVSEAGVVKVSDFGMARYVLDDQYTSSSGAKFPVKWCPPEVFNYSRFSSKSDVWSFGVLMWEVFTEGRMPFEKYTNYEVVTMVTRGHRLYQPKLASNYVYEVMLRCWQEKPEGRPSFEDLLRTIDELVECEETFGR
T8 sequence (Q8N568 whole entry): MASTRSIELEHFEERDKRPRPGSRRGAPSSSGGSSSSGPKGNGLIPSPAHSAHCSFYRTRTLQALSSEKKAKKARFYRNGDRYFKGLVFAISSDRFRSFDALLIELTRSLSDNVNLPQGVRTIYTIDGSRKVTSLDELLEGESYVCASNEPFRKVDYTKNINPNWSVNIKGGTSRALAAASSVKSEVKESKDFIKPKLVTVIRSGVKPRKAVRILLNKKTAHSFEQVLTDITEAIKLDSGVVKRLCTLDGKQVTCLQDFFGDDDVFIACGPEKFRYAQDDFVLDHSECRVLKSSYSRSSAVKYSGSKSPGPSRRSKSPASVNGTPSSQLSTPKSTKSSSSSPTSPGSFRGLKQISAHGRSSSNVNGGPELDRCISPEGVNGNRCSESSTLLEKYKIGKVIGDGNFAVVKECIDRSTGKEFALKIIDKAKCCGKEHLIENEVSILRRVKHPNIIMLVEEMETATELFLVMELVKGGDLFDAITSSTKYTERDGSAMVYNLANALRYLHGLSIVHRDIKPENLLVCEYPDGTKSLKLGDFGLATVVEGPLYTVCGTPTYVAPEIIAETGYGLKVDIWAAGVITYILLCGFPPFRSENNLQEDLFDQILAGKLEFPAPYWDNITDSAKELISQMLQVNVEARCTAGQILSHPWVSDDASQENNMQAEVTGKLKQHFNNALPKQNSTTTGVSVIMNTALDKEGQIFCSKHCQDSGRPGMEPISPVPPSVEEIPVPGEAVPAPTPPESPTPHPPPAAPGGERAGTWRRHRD
T28 sequence (P42336 whole entry H1047Y): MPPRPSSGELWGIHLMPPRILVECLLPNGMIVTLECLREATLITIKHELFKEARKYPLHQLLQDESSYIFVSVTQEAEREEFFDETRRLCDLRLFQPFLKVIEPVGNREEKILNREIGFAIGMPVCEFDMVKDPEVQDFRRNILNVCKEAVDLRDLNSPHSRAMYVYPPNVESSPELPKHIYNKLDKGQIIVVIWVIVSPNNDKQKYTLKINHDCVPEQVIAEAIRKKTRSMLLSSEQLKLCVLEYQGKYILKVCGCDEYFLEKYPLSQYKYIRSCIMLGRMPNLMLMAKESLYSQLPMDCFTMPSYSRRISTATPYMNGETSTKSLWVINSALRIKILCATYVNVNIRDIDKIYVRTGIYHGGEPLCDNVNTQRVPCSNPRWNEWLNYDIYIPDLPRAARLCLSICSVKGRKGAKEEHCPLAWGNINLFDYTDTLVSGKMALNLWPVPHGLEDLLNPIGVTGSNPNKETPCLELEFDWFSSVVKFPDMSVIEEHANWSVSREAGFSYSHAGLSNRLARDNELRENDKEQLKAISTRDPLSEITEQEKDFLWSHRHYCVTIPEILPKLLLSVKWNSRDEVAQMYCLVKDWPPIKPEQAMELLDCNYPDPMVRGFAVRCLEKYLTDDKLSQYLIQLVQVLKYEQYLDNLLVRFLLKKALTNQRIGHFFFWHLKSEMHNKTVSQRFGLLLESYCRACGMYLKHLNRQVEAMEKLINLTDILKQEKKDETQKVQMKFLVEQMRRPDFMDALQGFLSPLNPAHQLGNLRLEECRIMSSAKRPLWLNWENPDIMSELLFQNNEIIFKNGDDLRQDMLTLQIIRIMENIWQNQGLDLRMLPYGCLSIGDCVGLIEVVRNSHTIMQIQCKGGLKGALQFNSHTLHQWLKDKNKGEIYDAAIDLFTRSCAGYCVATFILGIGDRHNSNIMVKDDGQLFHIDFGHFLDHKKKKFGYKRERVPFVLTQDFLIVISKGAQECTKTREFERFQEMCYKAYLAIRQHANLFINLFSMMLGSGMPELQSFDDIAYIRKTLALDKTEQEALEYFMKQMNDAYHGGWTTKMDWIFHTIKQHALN
T35 sequence (Q13523 whole entry): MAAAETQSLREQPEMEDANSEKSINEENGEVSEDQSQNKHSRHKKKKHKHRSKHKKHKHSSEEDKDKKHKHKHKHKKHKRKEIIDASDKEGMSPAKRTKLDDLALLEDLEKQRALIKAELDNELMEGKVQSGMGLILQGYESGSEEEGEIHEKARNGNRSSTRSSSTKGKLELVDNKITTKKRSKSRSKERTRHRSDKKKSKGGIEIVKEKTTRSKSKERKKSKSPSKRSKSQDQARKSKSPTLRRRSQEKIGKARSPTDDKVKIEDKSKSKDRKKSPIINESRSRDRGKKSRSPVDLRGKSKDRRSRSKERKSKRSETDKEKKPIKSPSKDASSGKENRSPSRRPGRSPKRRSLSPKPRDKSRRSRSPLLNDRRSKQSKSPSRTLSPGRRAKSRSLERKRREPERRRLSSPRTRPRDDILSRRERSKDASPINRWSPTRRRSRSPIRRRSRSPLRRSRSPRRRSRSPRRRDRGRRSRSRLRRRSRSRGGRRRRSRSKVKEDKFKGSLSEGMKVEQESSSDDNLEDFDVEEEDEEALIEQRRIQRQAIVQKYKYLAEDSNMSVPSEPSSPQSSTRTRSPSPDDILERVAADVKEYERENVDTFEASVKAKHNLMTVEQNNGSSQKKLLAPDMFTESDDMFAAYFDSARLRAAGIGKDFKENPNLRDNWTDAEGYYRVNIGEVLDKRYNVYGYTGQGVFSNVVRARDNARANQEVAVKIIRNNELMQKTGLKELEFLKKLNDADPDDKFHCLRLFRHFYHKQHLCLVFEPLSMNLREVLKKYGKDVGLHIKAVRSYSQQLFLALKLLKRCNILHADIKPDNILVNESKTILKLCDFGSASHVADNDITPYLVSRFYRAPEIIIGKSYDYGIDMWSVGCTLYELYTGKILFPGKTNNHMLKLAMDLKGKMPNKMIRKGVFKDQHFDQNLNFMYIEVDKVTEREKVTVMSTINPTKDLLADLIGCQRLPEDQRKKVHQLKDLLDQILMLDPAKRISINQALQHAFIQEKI
T33 sequence (P53350 whole entry): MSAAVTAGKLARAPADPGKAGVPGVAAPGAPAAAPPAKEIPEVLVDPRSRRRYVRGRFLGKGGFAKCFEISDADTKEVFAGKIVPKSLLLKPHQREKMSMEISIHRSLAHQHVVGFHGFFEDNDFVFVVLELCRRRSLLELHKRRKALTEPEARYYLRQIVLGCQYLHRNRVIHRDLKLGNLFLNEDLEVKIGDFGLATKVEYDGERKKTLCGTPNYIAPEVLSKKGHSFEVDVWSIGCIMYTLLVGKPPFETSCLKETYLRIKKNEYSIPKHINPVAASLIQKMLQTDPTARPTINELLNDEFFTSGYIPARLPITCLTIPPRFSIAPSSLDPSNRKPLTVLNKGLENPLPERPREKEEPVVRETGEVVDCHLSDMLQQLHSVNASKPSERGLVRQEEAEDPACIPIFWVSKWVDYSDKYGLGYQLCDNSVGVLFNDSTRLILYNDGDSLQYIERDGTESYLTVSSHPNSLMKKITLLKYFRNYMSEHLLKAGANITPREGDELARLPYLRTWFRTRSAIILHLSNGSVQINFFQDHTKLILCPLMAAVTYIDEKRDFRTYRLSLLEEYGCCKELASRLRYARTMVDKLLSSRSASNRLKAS
T11 sequence (P28482 whole entry): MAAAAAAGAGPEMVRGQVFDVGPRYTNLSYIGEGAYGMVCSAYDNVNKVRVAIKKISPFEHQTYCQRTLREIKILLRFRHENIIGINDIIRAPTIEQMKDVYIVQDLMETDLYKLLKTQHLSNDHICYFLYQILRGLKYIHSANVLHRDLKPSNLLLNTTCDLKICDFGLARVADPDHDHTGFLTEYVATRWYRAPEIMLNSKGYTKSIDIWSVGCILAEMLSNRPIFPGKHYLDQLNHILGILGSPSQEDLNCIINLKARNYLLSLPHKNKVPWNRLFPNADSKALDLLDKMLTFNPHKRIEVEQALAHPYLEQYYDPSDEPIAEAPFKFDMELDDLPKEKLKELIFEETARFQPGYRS
T4 sequence (Q9BWU1 whole entry): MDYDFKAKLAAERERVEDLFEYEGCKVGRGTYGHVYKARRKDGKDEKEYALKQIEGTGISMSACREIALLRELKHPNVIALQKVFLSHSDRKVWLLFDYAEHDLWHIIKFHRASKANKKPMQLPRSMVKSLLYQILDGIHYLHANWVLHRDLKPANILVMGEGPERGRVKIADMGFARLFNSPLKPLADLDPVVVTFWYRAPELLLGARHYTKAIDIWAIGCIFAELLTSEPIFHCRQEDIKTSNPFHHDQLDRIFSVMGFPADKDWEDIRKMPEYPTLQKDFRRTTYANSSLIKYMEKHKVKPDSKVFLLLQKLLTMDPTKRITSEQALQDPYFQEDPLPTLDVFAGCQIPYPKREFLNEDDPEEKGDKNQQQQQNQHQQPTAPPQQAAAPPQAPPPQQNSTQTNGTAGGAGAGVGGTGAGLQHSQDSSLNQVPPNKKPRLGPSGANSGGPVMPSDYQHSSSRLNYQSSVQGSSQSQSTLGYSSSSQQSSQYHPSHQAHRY

Cc1nc(NC(=O)[C@@H](N)C(C)C)sc1-c1cnc(Cl)c(NS(=O)(=O)c2ccccc2)c1 [PI3KD-IN-015] was tested, and the “KinomeScan AAK1” value (AAK1) was 100, the “KinomeScan ACVR2A” value (ACVR2A) was 100 and the “KinomeScan CAMKK2” value (CAMKK2) was 96. For the same compound, the “KinomeScan CDK11” value (CDK11) was 100, the “KinomeScan CDK8” value (CDK8) was 100 and the “KinomeScan CSNK1D” value (CSNK1D) was 79. The “KinomeScan DAPK3” value (DAPK3) was 91, the “KinomeScan DCAMKL2” value (DCAMKL2) was 100 and the “KinomeScan DMPK2” value (DMPK2) was 100. The “KinomeScan EGFR(S752-I759del)” value (EGFR(S752-I759del)) was 100, the “KinomeScan ERK2” value (ERK2) was 100 and the “KinomeScan FYN” value (FYN) was 100. The “KinomeScan INSRR” value (INSRR) was 97, the “KinomeScan IRAK4” value (IRAK4) was 67 and the “KinomeScan KIT-autoinhibited” value (KIT-autoinhibited) was 100. The “KinomeScan MAP4K4” value (MAP4K4) was 100, the “KinomeScan MAPKAPK2” value (MAPKAPK2) was 95 and the “KinomeScan MARK1” value (MARK1) was 100. The “KinomeScan MEK3” value (MEK3) was 93, the “KinomeScan MLK3” value (MLK3) was 100 and the “KinomeScan MRCKB” value (MRCKB) was 91. The “KinomeScan MST1R” value (MST1R) was 86, the “KinomeScan MYO3B” value (MYO3B) was 100 and the “KinomeScan OSR1” value (OSR1) was 75. For the same compound, the “KinomeScan p38-delta” value (p38-delta) was 98, the “KinomeScan PAK2” value (PAK2) was 89 and the “KinomeScan PIK3C2B” value (PIK3C2B) was 2.2. For the same compound, the “KinomeScan PIK3CA(H1047Y)” value (PIK3CA(H1047Y)) was 4.4, the “KinomeScan PIK3CB” value (PIK3CB) was 0 and the “KinomeScan PIM1” value (PIM1) was 100. For the same compound, the “KinomeScan PKAC-beta” value (PKAC-beta) was 87, the “KinomeScan PKNB(M.tuberculosis)” value (PKNB(M.tuberculosis)) was 79 and the “KinomeScan PLK1” value (PLK1) was 90. The “KinomeScan PRKCD” value (PRKCD) was 100, the “KinomeScan PRP4” value (PRP4) was 93 and the “KinomeScan ROCK1” value (ROCK1) was 100. The “KinomeScan RSK2(Kin.Dom.1-N-terminal)” value [1] was 100, the “KinomeScan RSK4(Kin.Dom.2-C-terminal)” value [2] was 99 and the “KinomeScan S6K1” value (S6K1) was 100. For the same compound, the “KinomeScan STK16” value (STK16) was 91, the “KinomeScan TEC” value (TEC) was 100 and the “KinomeScan TNIK” value (TNIK) was 95. For the same compound, the “KinomeScan YES” value (YES) was 100.

From paper PMC5078040 (Oncotarget, 2016)
